Measurements taken from paper PMC3205148 (International Journal of Nanomedicine, 2011).
≈ marks a conversion by molar mass, not a printed value.

Key:
OVCAR-3 = conditions: day 300, OVCAR-3-bearing SCID mice; cited from earlier work
[1] = Solubility in Miglyol 812; format: physicochemical; conditions: Miglyol 812, oil or lipid

solubility [1] [mg/mL] | Structure (SMILES) | Survival (OVCAR-3) [%]
– | CCCCCCCCCCCCCCC(Br)C(=O)O[C@@H](C(=O)O[C@H]1C[C@@]2(O)[C@@H](OC(=O)c3ccccc3)[C@@H]3[C@]4(OC(C)=O)CO[C@@H]4C[C@H](O)[C@@]3(C)C(=O)[C@H](O)C(=C1C)C2(C)C)[C@@H](NC(=O)OC(C)(C)C)c1ccccc1 (some centres unmarked) [2′-(2-bromo)-hexadecanoyl DX] | 100
36.11 ± 0.1 (≈ 44.7 mM) | CC(=O)O[C@@]12CO[C@@H]1C[C@H](O)[C@@]1(C)C(=O)[C@H](O)C3=C(C)[C@@H](OC(=O)[C@H](O)[C@@H](NC(=O)OC(C)(C)C)c4ccccc4)C[C@@](O)([C@@H](OC(=O)c4ccccc4)[C@H]21)C3(C)C [DX, Docetaxel] | –
